Reference: patent US20240270762A1, “PENICILLIN-BINDING PROTEIN INHIBITORS” (priority 2021, published 2024)
In brackets after ≈: the same amount, converted by molar mass.

Tests used:
A. baumannii 1258916 = experiment: microbe, parasite or virus in culture; format: cell-based, Acinetobacter baumannii; conditions: Acinetobacter baumannii, 1258916, read-out: MIC, A. baumannii 1258916
[1] = target: T1, PBP3 from Pseudomonas aeruginosa (PAO1) (Pseudomonas aeruginosa, UniProt G3XD46); experiment: Bocillin-FL fluorescence polarization competition binding, P. aeruginosa PBP3; conditions: Binding affinity to P. aeruginosa PBP3; fluorescence polarization competition binding assay using Bocillin-FL; read-out: P. aeruginosa PBP3 Potency
T1 construct: made in house
How it was run: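 Purified PBPs pre-incubated with inhibitor (E. coli PBP3 1.5 μM, 30 min; P. aeruginosa PBP3 0.75 μM, A. baumannii PBP1a 1 μM and PBP3 0.2 μM, 15 min), then Bocillin-FL 0.1 μM (0.05 μM for PBP1a) added; FP read up to 60 min. EC50 = concentration halving bound Bocillin-FL.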

P. aeruginosa CDC-0054 = experiment: microbe, parasite or virus in culture; format: cell-based; conditions: Pseudomonas aeruginosa, CDC0054, read-out: Minimum inhibitory concentration, P. aeruginosa CDC-0054
A. baumannii CDC-0036 = experiment: microbe, parasite or virus in culture; format: cell-based; conditions: Acinetobacter baumannii, CDC0036, read-out: MIC, A. baumannii CDC-0036
[2] = system: B. humptydooensis ATCC BAA-2767; experiment: microbe, parasite or virus in culture; format: cell-based; conditions: Burkholderia humptydooensis, ATCCBAA2767, read-out: Minimum inhibitory concentration (MIC), B. humptydooensis ATCC BAA-2767
P. aeruginosa CDC-0090 = experiment: microbe, parasite or virus in culture; format: cell-based; conditions: Pseudomonas aeruginosa, CDC0090, read-out: Minimum inhibitory concentration, P. aeruginosa CDC-0090
A. baumannii ATCC 17978 = experiment: microbe, parasite or virus in culture; format: cell-based; conditions: Acinetobacter baumannii, ATCC17978, read-out: MIC, A. baumannii ATCC 17978
A. baumannii CDC-0033 = experiment: microbe, parasite or virus in culture; format: cell-based; conditions: Acinetobacter baumannii, CDC0033, read-out: MIC, A. baumannii CDC-0033
[3] = system: P. aeruginosa (ΔmexAB-oprM); experiment: Broth microdilution MIC in iron-depleted CAMHB (IDM); format: cell-based; conditions: Pseudomonas aeruginosa; iron-depleted CAMHB (IDM); […]; read-out: Minimum inhibitory concentration, P. aeruginosa ΔmexAB-oprM
P. aeruginosa ATCC 35151 = experiment: microbe, parasite or virus in culture; format: cell-based; conditions: Pseudomonas aeruginosa, ATCC35151, read-out: Minimum inhibitory concentration, P. aeruginosa ATCC 35151

T1 sequence (G3XD46 whole entry): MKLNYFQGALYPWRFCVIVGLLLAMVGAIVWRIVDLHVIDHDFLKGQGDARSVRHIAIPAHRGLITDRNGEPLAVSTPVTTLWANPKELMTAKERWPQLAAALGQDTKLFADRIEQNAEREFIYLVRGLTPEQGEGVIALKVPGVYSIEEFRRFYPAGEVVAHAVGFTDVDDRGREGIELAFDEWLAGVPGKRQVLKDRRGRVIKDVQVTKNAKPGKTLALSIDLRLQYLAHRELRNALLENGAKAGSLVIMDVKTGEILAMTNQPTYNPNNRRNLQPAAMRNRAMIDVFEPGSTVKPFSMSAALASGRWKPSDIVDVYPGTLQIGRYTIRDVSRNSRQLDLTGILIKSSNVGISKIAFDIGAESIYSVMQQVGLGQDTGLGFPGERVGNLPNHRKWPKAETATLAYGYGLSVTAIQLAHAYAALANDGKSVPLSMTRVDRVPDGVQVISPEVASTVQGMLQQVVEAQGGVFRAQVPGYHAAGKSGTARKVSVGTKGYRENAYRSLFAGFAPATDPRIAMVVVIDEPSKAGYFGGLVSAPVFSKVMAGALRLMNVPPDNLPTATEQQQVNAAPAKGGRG

SMILES	MIC (A. baumannii 1258916) [µg/mL]	IC50 [1] [µM]	MIC (P. aeruginosa CDC-0054) [µg/mL]	MIC (A. baumannii CDC-0036) [µg/mL]	MIC [2] [µg/mL]	MIC (P. aeruginosa CDC-0090) [µg/mL]	MIC (A. baumannii ATCC 17978) [µg/mL]	MIC (A. baumannii CDC-0033) [µg/mL]	MIC [3] [µg/mL]	MIC (P. aeruginosa ATCC 35151) [µg/mL]
O=C(O)c1c(F)ccc2c1OB(O)[C@@H](NC(=O)C(NC(=O)N1CCN(C3CCN(C(=O)Nc4cc(O)ccc4F)CC3)C(=O)C1=O)c1cc(F)c(O)c(O)c1Cl)C2 (stereo partly drawn) [Example 479, (3R)-3-(2-(2-chloro-5-fluoro-3,4-dihydroxyphenyl)-2-(4-(1-((2-fluoro-5-hydroxyphenyl)carbamoyl)piperidin-4-yl)-2,3-dioxopiperazine-1-carboxamido)acetamido)-7-fluoro-2-hydroxy-3,4-dihydro-2H-benzo[e][1,2]oxaborinine-8-carboxylic acid]	< 1	< 10	< 1	< 1	2 to 4 (≈ 2.44 to 4.88 µM)	2 to 4 (≈ 2.44 to 4.88 µM)	< 1	2 to 4 (≈ 2.44 to 4.88 µM)	< 1	< 1
O=C(O)c1c(F)ccc2c1OB(O)[C@@H](NC(=O)C(NC(=O)N1CCN(C3CCN(C(=O)Nc4ccc(F)c(O)c4)CC3)C(=O)C1=O)c1cc(F)c(O)c(O)c1Cl)C2 (stereo partly drawn) [Example 480, (3R)-3-(2-(2-chloro-5-fluoro-3,4-dihydroxyphenyl)-2-(4-(1-((4-fluoro-3-hydroxyphenyl)carbamoyl)piperidin-4-yl)-2,3-dioxopiperazine-1-carboxamido)acetamido)-7-fluoro-2-hydroxy-3,4-dihydro-2H-benzo[e][1,2]oxaborinine-8-carboxylic acid]	< 1	< 10	< 1	2 to 4 (≈ 2.44 to 4.88 µM)	8 to 16 (≈ 9.77 to 19.5 µM)	2 to 4 (≈ 2.44 to 4.88 µM)	< 1	2 to 4 (≈ 2.44 to 4.88 µM)	< 1	< 1
O=C(O)c1c(F)ccc2c1OB(O)[C@@H](NC(=O)C(NC(=O)N1CCN(C3CCN(C(=O)Nc4cc(O)cc(F)c4)CC3)C(=O)C1=O)c1cc(F)c(O)c(O)c1Cl)C2 (stereo partly drawn) [Example 481, (3R)-3-(2-(2-chloro-5-fluoro-3,4-dihydroxyphenyl)-2-(4-(1-((3-fluoro-5-hydroxyphenyl)carbamoyl)piperidin-4-yl)-2,3-dioxopiperazine-1-carboxamido)acetamido)-7-fluoro-2-hydroxy-3,4-dihydro-2H-benzo[e][1,2]oxaborinine-8-carboxylic acid]	< 1	< 10	< 1	< 1	32 to 64 (≈ 39.1 to 78.2 µM)	2 to 4 (≈ 2.44 to 4.88 µM)	< 1	2 to 4 (≈ 2.44 to 4.88 µM)	< 1	< 1
O=C(O)c1c(F)ccc2c1OB(O)[C@@H](NC(=O)[C@H](NC(=O)N1CCN(C3CCN(C(=O)Nc4cccc(O)c4Cl)CC3)C(=O)C1=O)c1cc(F)c(O)c(O)c1Cl)C2 [Example 482, (R)-3-((R)-2-(4-(1-((2-chloro-3-hydroxyphenyl)carbamoyl)piperidin-4-yl)-2,3-dioxopiperazine-1-carboxamido)-2-(2-chloro-5-fluoro-3,4-dihydroxyphenyl)acetamido)-7-fluoro-2-hydroxy-3,4-dihydro-2H-benzo[e][1,2]oxaborinine-8-carboxylic acid]	< 1	< 10	< 1	< 1	2 to 4 (≈ 2.39 to 4.79 µM)	2 to 4 (≈ 2.39 to 4.79 µM)	< 1	2 to 4 (≈ 2.39 to 4.79 µM)	< 1	< 1
O=C(O)c1c(F)ccc2c1OB(O)[C@@H](NC(=O)C(NC(=O)N1CCN(C3CCN(C(=O)Nc4cc(O)ccc4Cl)CC3)C(=O)C1=O)c1cc(F)c(O)c(O)c1Cl)C2 (stereo partly drawn) [Example 483, (3R)-3-(2-(2-chloro-5-fluoro-3,4-dihydroxyphenyl)-2-(4-(1-((2-chloro-5-hydroxyphenyl)carbamoyl)piperidin-4-yl)-2,3-dioxopiperazine-1-carboxamido)acetamido)-7-fluoro-2-hydroxy-3,4-dihydro-2H-benzo[e][1,2]oxaborinine-8-carboxylic acid]	< 1	< 10	2 to 4 (≈ 2.39 to 4.79 µM)	2 to 4 (≈ 2.39 to 4.79 µM)	> 128	2 to 4 (≈ 2.39 to 4.79 µM)	< 1	8 to 16 (≈ 9.58 to 19.2 µM)	< 1	< 1
